Laboratory results published in patent publication EP0209363B1, “Heteropeptides, intermediates in the biosynthesis of penicillins” (Antibioticos, S.A., priority 1985, dated 1987).
Where a SMILES comes first, the peptide text is derived from it. [ ]: non-standard residue; d: D form. The star is where a group is joined. PhAc = O=C(Cc1ccccc1)*

How the values were obtained:
[1] = target: T1, isopenicillin N synthetase (cyclase) (Streptomyces clavuligerus, UniProt P10621); assay: Cyclization of peptide substrates by S. clavuligerus cyclase, penicillin formed measured by bioassay against M. luteus; type: biochemical; conditions: for kinetics of cyclization with the cyclase (Fig 1): formation of penicillin G from PCV, synthesis of isopenicillin N from ACV
T1 construct: The broken cell suspension was ultra-centrifuged at 100,000 x g; endogenous in cells; host or cells: Streptomyces clavuligerus ATCC 27064
T1 sequence (P10621 1-329): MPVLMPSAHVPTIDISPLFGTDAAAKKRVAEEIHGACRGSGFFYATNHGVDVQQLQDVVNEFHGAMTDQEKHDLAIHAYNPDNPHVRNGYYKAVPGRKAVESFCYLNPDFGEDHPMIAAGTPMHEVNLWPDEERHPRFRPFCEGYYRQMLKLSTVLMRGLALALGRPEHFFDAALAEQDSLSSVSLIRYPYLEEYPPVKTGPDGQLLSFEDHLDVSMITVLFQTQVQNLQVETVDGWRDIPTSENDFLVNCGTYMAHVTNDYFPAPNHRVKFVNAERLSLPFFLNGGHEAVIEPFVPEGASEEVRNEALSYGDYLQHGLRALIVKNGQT
Description: S. clavuligerus ATTC 27064 was maintained and grown as described by O'Sullivan et al. in Biochem. J. 179:47-52, 1979. 250 ml of culture were harvested by centrifugation at 10,000 x g for 5 minutes, washed four times by resuspension in sterile saline solution and centrifuged as before. The precipitated cells, resuspended in 25 ml of […] Tris-HCl buffer pH 7.5 containing 0.1mM DTT (TD buffer), were sonicated as described in J. Antibiot. 35:483-490, 1982, using a Branson Sonifier Cell Disruptor (B-12). The broken cell suspension was ultra-centrifuged at 100,000 x g (Beckman L5-65B) for 90 minutes, treated with 0.2 (w/v) protamine sulphate and the clear extract precipitated with ammonium sulphate (30-80% saturation, for example 50-80% saturation). The resulting precipitate was resuspended in 3 ml of TD buffer and applied to a Sephadex (Trade Mark) G-25, PD-10 column (Pharmacia). Aliquots of 1 ml were collected and assayed for isopenicillin N synthetase (cyclase) activity. Fractions 4 and 5, containing maximal activity, were mixed and employed for the reaction. The cyclase extracts were stored frozen at -20 C. Protein was measured by the method of Lowry et al described in J. Biol. Chem. 193:265-273, 1951.
Cyclization activity of the cyclase on ACV or PCV was assayed by a slightly modified version of the method described by Jensen et al. in J.Antibiot, 35:483-490, 1982 and in Antibiotics and Other Secondary Metabolites pages 141-164, Academic Press. The reaction mixture contained 30mM Tris-HCl buffer pH 7.5; 0.5 mM FeSO₄; 1mM bis-ACV or 3mM bis-PCV; 4mM DTT; 3 mM Na ascorbate and enzyme (10mg of protein) in a final reaction volume of 0.5 ml. The reaction mixture was incubated at 25°C for 90 min and stopped by adding 0.5ml of methanol.
The formation of isopenicillin N and benzylpenicillin was measured by bioassay against M. luteus ATCC 9341 following the hole plate method described in Biochem. J. 103:877-890, 1967. Penicillin N and benzylpenicillin were used as standards. One unit of antibiotic (penicillin N or benzylpenicillin) gave a zone of inhibition equivalent to 1µg or 1.58 µg of penicillin N or benzylpenicillin respectively with M. luteus luteus ATCC 9341 as test organism.

[2] = target: T2, isopenicillin N synthetase (cyclase) (Penicillium chrysogenum, UniProt P08703); assay: Cyclization of peptide substrates by P. chrysogenum cyclase, penicillin formed measured by bioassay; type: biochemical
T2 construct: The mycelium was disrupted by sonification for 5 minutes; endogenous in cells
T2 sequence (P08703 1-331): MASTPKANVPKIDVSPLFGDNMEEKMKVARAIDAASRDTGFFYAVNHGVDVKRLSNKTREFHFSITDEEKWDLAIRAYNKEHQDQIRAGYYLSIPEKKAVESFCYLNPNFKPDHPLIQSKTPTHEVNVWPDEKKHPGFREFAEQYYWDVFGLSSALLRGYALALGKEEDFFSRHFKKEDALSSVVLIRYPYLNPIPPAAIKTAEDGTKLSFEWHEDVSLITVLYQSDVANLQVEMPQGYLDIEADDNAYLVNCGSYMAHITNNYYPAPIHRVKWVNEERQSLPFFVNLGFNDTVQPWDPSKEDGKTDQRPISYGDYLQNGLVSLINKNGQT
Description: Example 2 was repeated but using isopenicillin N synthetase extracted from a high producing strain of Penicillium chrysogenum (Penicillium chrysogenum AS-P-78, Luengo et al J. Antibiot. 144:869-876). Cells containing high isopenicillin N synthetase activity were obtained in a two stage process as described in J. Antibiot. 144:869-876. Cell free extracts were obtained as described by Ramos et al in Antimicrob. Agents Chemother. 27(3):380-387. Mycelium of P. chrysogenum was collected at 24 hours of cultivation in cephalosporin production medium (CP medium) and resuspended in 30mM Tris-HCl buffer pH 8.0 containing 0.1mM dithiothreitol (DTT). The mycelium was disrupted by sonification for 5 minutes. The extract was centrifuged at 100,000 x g for 1 hour at 4°C in a Beckman L8-70 ultracentrifuge and the resulting crude extract was stored at -20°C. Isopenicillin N synthetase were purified as previously described in Antimicrob. Agents Chemother. 27(3):380-387. The isopenicillin N and benzylpenicillin formed by cyclization of 0.2mM ACV or 2mM PCV using […] was assayed by the following bioassay. After the reactions were stopped with methanol, triplicate 50 µl samples were applied to wells 7mm in diameter in plates containing 15ml of Tryptic Soy Agar (TSA) medium (Difco) innoculated with Micrococcus luteus (0.5 ml of a culture having an O.D. of 1.0 at 600nm). Control samples of pure isopenicillin N or benzylpenicillin were treated with methanol in a similar way to the reaction samples. The samples in the assay plates were kept at 4°C for 3 hours to allow diffusion and then incubated at 30°C for 12 hours. The cell free extracts of P. chrysogenum AS-P-78 (5-20 mg of protein/ml) were incubated at 25°C for 30 minutes in a reaction mixture containing 30mM Tris-HCl buffer pH 8.1, 0.1mM FeSO₄, 6mM DTT, 3mM Na ascorbate and 3mM POCV. The pH was adjusted to 2.0.

[3] = target: T3, isopenicillin N synthetase (cyclase) (Hapsidospora chrysogena, UniProt P05189); assay: Cyclization of peptide substrates by A. chrysogenum cyclase, penicillin formed measured by bioassay; type: biochemical, Acremonium chrysogenum
T3 construct: The mycelium was disrupted by sonification for 2 minutes; endogenous in cells
T3 sequence (P05189 1-338): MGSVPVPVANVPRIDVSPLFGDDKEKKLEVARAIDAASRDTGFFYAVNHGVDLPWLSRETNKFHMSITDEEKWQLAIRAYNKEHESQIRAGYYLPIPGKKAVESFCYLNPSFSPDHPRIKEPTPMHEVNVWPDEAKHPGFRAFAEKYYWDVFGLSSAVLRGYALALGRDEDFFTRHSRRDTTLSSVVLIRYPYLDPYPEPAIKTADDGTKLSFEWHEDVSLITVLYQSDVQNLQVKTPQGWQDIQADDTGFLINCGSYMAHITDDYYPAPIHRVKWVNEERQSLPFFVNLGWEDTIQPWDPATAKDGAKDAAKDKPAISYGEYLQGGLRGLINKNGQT
Description: Example 2 was repeated but using isopenicillin N synthetase extracted from a high producing strain of Acremonium chrysogenum (A. chrysogenum C-10 available from A. L. Demain).
Cells containing high isopenicillin N synthetase activity were obtained in a two stage process as described in J. Antibiot. 144:869-876. A. chrysogenum cultures were developed in seed medium for 4 days and these used to innoculate 60ml of chemically defined cephalosporin production medium, (CP medium). Cell free extracts were obtained as described by Ramos et al in Antimicrob. Agents Chemother. 27(3):380-387. Mycelium of A. chrysogenum was collected at 64 hours of cultivation in CP medium and resuspended in 30mM Tris-HCl buffer pH 8.0 containing 0.1mM dithiothreitol (DTT). The mycelium was disrupted by sonification for 2 minutes. The extract was centrifuged at 100,000 x g for 1 hour at 4°C in a Beckman L8-70 ultracentrifuge and the resulting crude extract was stored at -20 C. Isopenicillin N synthetase was purified as previously described in Antimicrob. Agents Chemother. 27(3):380-387.
Bioassay of the isopenicillin N and benzylpenicillin formed by the A. chrysogenum cyclase was performed in a similar way to the method described in Example 3 for assaying the penicillins produced by the cyclase extracted from P. chrysogenum.
Example 4 was repeated but using POCV as substrate in place of PCV. POCV was prepared as described in Example 5. The cyclase was extracted from A. chrysogenum AS-C-80 and incubated in the reaction mixture described in Example 5, with the exception that the pH of the Tris buffer was 7.8.

[4] = test system: isopenicillin N synthetase, also called cyclase; conditions: added to the reaction mixture; cited from earlier work

CC(C)[C@@H](NC(=O)[C@H](CS)NC(=O)Cc1ccccc1)C(=O)O [PCV, phenylacetyl-L-cysteinyl-D-valine] (PhAc-Cys-[dV]-OH)
sensitivity of the cyclization product to β-lactamase I from Bacillus careus [1]: sensitive to β-lactamase I
Benzylpenicillin (U/ml) ([1]; complete reaction mixture with PCV as substrate): 0.15 U/ml
kinetics of cyclization with the cyclase (Fig 1) [1]: slow time dependent course
activity of the cyclization product against M. luteus ATTC 9341 ([1]; hole plate bioassay): active against M. luteus ATTC 9341
loss of antibacterial activity of the cyclization product ([1]; incubated with 2 I.U. of penicillin acylase at 30°C for 10 minutes): over 90 per cent
Isopenicillin N¹ or Benzylpenicillin² (U/ml) ([1]; substrate PCV (3mM bis-PCV), control reaction mixture, 25°C, 90 min, benzylpenicillin as standard): 0.15 U/ml
Isopenicillin N¹ or Benzylpenicillin² (U/ml) ([1]; substrate PCV, + Penicillin acylase (2 I.U, 10 min.), benzylpenicillin as standard): 0.01 U/ml
Isopenicillin N¹ or Benzylpenicillin² (U/ml) ([1]; substrate PCV, + β-lactamase, benzylpenicillin as standard): 0.00 U/ml
inactivation of the reaction product by penicillin acylase [2]: inactivated by penicillin acylase
inactivation of the reaction product by penicillinase [2]: completely inactivated
inactivation of the reaction product by penicillin acylase [3]: inactivated by penicillin acylase
inactivation of the reaction product by penicillinase [3]: completely inactivated

CC(C)[C@@H](NC(=O)[C@H](CS)NC(=O)CCC[C@H](N)C(=O)O)C(=O)O [ACV, δ-(L-α-aminoadipyl)-L-cysteinyl-D-valine, reference compound]
kinetics of cyclization with the cyclase (Fig 1) [1]: much faster
sensitivity of the cyclization product to penicillin acylase ([1]; isopenicillin N obtained from the cyclization of ACV): not sensitive to penicillin acylase
Isopenicillin N¹ or Benzylpenicillin² (U/ml) ([1]; substrate ACV (1mM bis-ACV), control reaction mixture, 25°C, 90 min, isopenicillin N measured using penicillin N as standard): 40 U/ml
Isopenicillin N¹ or Benzylpenicillin² (U/ml) ([1]; substrate ACV, + Penicillin acylase (2 I.U, 10 min.), isopenicillin N measured using penicillin N as standard): 38 U/ml
Isopenicillin N¹ or Benzylpenicillin² (U/ml) ([1]; substrate ACV, + β-lactamase, isopenicillin N measured using penicillin N as standard): 0 U/ml
inactivation of the reaction product by penicillin acylase [2]: did not occur
inactivation of the reaction product by penicillinase [2]: completely inactivated
inactivation of the reaction product by penicillinase [3]: completely inactivated

N[C@@H](CCC(=O)N[C@@H](CS)C(=O)NCC(=O)O)C(=O)O [glutathione, γ-glutamyl-cysteinyl-glycine]
effect on ACV cyclization [4]: inhibited

CC(C)[C@@H](NC(=O)[C@H](CS)NC(=O)COc1ccccc1)C(=O)O [POCV, phenoxyacetyl-L-cysteinyl-D-valine]
Penicillin V (U/ml) ([2]; complete reaction mixture, 3mM POCV, Tris-HCl buffer pH 8.1, 25°C, 30 minutes, P. chrysogenum AS-P-78 cell free extract): 0.18 U/ml
Penicillin V (U/ml) ([3]; complete reaction mixture, 3mM POCV, Tris buffer pH 7.8, cyclase from A. chrysogenum AS-C-80): 0.25 U/ml
